# Measurements taken from US7598234B2, “Steroid derived antibiotics” (Brigham Young University, priority 1998, dated 2009).
# Key:
# [1] = system: Salmonella typhimurium ATCC 14028; assay: Growth inhibition and FIC with rifampicin, Salmonella typhimurium ATCC 14028; format: cell-based; settings: Table 13; Salmonella typhimurium ATCC 14028^b; rifampicin (by order) at 0.5, 1.0 or 3.0 μg/mL
# Method: (§1) Alternatively, “fractional inhibitory concentration (FIC)” is also useful for determination of synergy between the compounds of the invention, or the compounds in combination with known antibiotics. FICs can be performed by checkerboard titrations of compounds in one dimension of a microtiter plate, and of antibiotics in the other dimension, for example. The FIC is calculated by looking at the impact of one antibiotic on the MIC of the other and vice versa. […] Preferably, an FIC of less than 0.5 is obtained for synergism. As used herein, FIC can be determined as follows:
# (§2) Aliquots of 1 mL of the suspension were added to test tubes containing 1 mL TSB and incrementally varied concentrations of cholic acid derivatives and/or erythromycin or novobiocin. In the sensitization experiments, erythromycin or novobiocin were added 15 minutes later than the cholic acid derivatives. The samples were subjected to stationary incubation at 37° C. for 24 hours. Sample turbidity was determined by measuring absorption at 760 nm (HP 8453 UV-Visible Chemstation, Hewlett Packard). Additionally, an alliquot from each of the samples showing no measurable turbidity was subcultured on TSA plates (alliquots were diluted to provide fewer than 300 CFU). Colonies that grew on the subculture after overnight incubation were counted and the number of CFU/mL in the samples were calculated. The calculated values were compared to the number of CFU/mL in the original inoculum.
# (§3) To measure permeabilization, the FIC values for compounds 1, 2, 5, 106, 10, 112, 133, and 134 with erythromycin, novobiocin, and rifampicin were determined. Concentrations of 0.5, 1.0 or 3.0 μg/mL of these antibiotics were used, and the concentrations of the cholic acid derivatives required to inhibit bacterial growth of Gram-negative strains were determined.
# E. coli (ATCC 10798) [2] = assay: MIC and MBC measurement with E. coli (ATCC 10798); format: cell-based, Escherichia coli; settings: Table 1, E. coli (ATCC 10798)
# Procedure, shortened: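 Broth macrodilution, TSB, 37° C./24 h stationary; MIC by absence of A760 turbidity, MBC by TSA subculture CFU/mL against starting inoculum.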
# E. coli (ATCC 10798) [3] = assay: Sensitization to erythromycin (concentration lowering the MIC of erythromycin), E. coli (ATCC 10798); format: cell-based, Escherichia coli; settings: Table 2, E. coli (ATCC 10798)
# [4] = system: Escherichia coli ATCC 25922; assay: Growth inhibition and FIC with rifampicin, Escherichia coli ATCC 25922; format: cell-based; settings: Table 13, rifampicin (by order) at 0.5, 1.0 or 3.0 μg/mL
# Method: as §1, §2, §3
# [5] = remark: listed apart in the source
# Method: (§4) Minimum inhibition concentrations (MIC) and minimum hemolytic concentrations (MHC) were measured as described in Li et al., Antimicrob. Agents. Chemother., 1999, 43, 1347.
# [6] = system: Klebsiella pneumonia ATCC 13883; assay: Growth inhibition and FIC with rifampicin, Klebsiella pneumoniae ATCC 13883; format: cell-based
# Method: as §1, §2, §3
# [7] = system: Klebsiella pneumonia ATCC 13883; assay: Growth inhibition and FIC with novobiocin, Klebsiella pneumoniae ATCC 13883; format: cell-based; settings: Table 12, novobiocin (by order) at 0.5, 1.0 or 3.0 μg/mL
# Method: as §1, §2, §3
# E. coli (ATCC 25922) [8] = assay: MIC and MBC measurement with E. coli (ATCC 25922); format: cell-based, Escherichia coli; settings: ATCC25922; Table 10; Escherichia coli ATCC 25922; read-out: MBC
# Procedure, shortened: (§5)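 Growth inhibition read as absorbance at 760 nm after 24 h stationary culture at 37 °C in tryptic soy broth containing varied compound levels. Turbidity-free samples were plated on TSA overnight and CFU/mL compared with the starting inoculum for bactericidal endpoint; antibiotic co-additions followed compound by 15 min.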
# [9] = system: Pseudomonas aeruginosa (ATCC 27853); assay: Sensitization to erythromycin, Pseudomonas aeruginosa (ATCC 27853); format: cell-based
# Procedure, shortened: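 Sensitization measured by the cholic acid derivative concentration inhibiting growth when combined with 0.5, 1.0 or 3.0 μg/mL erythromycin or novobiocin, antibiotic added 15 min after derivative. Incubation 24 h at 37 °C without shaking in TSB; growth by absorbance at 760 nm with CFU plating of non-turbid tubes; synergy expressed as FIC.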
# [10] = system: Staphylococcus aureus ATCC 25923; assay: MIC and MBC measurement with Staphylococcus aureus ATCC 25923; format: cell-based; settings: ATCC25923; Table 10; Staphylococcus aureus ATCC 25923; read-out: MIC
# Procedure, shortened: as §5
# [11] = system: Salmonella typhimurium ATCC 14028; assay: MIC and MBC measurement with Salmonella typhimurium ATCC 14028; format: cell-based; settings: Salmonella enterica, Table 10, read-out: MBC
# Description: (§6) General: Microorganisms. Reference strains were purchased from the American Type Culture Collection (Rockville, Md.) or Bactrol disks from Difeo Laboratories (Detroit, Mich.). The following specific ATCC strains were used: 10798 Escherichia coli, 25922 Escherichia coli, 13883 Klebsiella pneumoniae, 27853 Pseudomonas aeruginosa, 14028 Salmonella typhimurium, 29212 Enterococcus faecalis, 25923 Staphylococcus aureus, 19615 Streptococcus pyogenes, and 90028 Candida albicans. Bacterial strains were maintained on Mueller-Hinton agar plates, and Candida albicans was maintained on Sabouraud Dextrose agar plates.
# (§7) Tryptic soy broth (TSB) was made by dissolving 27.5 grams of tryptic soy broth without dextrose (DIFCO Laboratories) in 1 liter of deionized water and sterilizing at 121° C. for 15 minutes. Solid agar (TSA) plates were made by dissolving 6.4 grams of tryptic soy broth and 12 grams of agar (purified grade, Fischer Scientific) in 800 mL of deionized water and sterilizing at 121° C. for 20 minutes. Aliquots (20 mL) of the homogeneous solution were then poured in sterile plastic petri dishes (100×15 mm, Fisher Scientific). Solutions of compounds were made by dissolving the HCl salt of the respective compound into an appropriate amount of deionized and sterilized water followed by microfiltration.
# as §2
# E. coli (ATCC 25922) [12] = assay: Sensitization to erythromycin, E. coli (ATCC 25922); format: cell-based, Escherichia coli; settings: Table 11; Escherichia coli ATCC 25922; erythromycin (by order) at 0.5, 1.0 or 3.0 μg/mL
# Method: FICs can be performed by checkerboard titrations of compounds in one dimension of a microtiter plate, and of antibiotics in the other dimension, for example. The FIC is calculated by looking at the impact of one antibiotic on the MIC of the other and vice versa. […] Preferably, an FIC of less than 0.5 is obtained for synergism. As used herein, FIC can be determined as follows:
# as §2
# Concentrations of 0.5, 1.0 or 3.0 μg/mL of these antibiotics were used, and the concentrations of the cholic acid derivatives required to inhibit bacterial growth of Gram-negative strains were determined.
# as §4
# [13] = system: Salmonella typhimurium ATCC 14028; assay: Growth inhibition and FIC with novobiocin, Salmonella typhimurium ATCC 14028; format: cell-based; settings: Table 12, novobiocin (by order) at 0.5, 1.0 or 3.0 μg/mL
# Method: as §1, §2, §3
# [14] = system: Pseudomonas aeruginosa ATCC 27853; assay: Growth inhibition and FIC with rifampicin, Pseudomonas aeruginosa ATCC 27853; format: cell-based; settings: Table 13; Pseudomonas aeruginosa ATCC 27853^b; rifampicin (by order) at 0.5, 1.0 or 3.0 μg/mL
# Method: as §1, §2, §3
# [15] = system: Klebsiella pneumonia ATCC 13883; assay: MIC and MBC measurement with Klebsiella pneumoniae ATCC 13883; format: cell-based; settings: Klebsiella pneumoniae, ATCC13883, Table 10, read-out: MBC
# Description: as §6, §7, §2
# [16] = system: Pseudomonas aeruginosa (ATCC 27853); assay: Sensitization to novobiocin, Pseudomonas aeruginosa (ATCC 27853); format: cell-based; settings: Table 12; Pseudomonas aeruginosa ATCC 27853; novobiocin (by order) at 0.5, 1.0 or 3.0 μg/mL
# Method: as §1
# as §2, with “inoculum. […]” for “inoculum.”
# as §3
# Gram-negative bacteria [17] = assay: Sensitization to novobiocin, ester and amide side chain compounds (Table 14); format: cell-based; settings: strain not given
# Method: as §2
# (§8) Ability to permeabilize outer membrane: Compounds 11, 106, and 108-114 (FIG. 1) were tested for antibiotic activity. They were also tested for the ability to permeabilize the outer membrane of Gram-negative bacteria, causing sensitization to hydrophobic antibiotics that cannot cross the outer membrane. The permeabilization of the outer membrane was measured using erythromycin and novobiocin.
# (§9) Ester and amide side chains: Additional compounds, for example, compounds with amide and ester side chains, were tested.
# Gram-negative bacteria [18] = assay: MIC of ester and amide side chain compounds (Table 14); format: cell-based; settings: strain not given
# Method: as §2, §9
# Gram-negative bacteria [19] = assay: Sensitization to erythromycin, ester and amide side chain compounds (Table 14); format: cell-based; settings: Table 14; strain not given
# Method: as §2, §8, §9
compound,measurement,setting,value
C[C@H](CCCO)C1CC[C@H]2[C@@H]3[C@H](N)C[C@@H]4C[C@H](N)CC[C@]4(C)[C@H]3C[C@H](N)[C@]12C (stereo partly shown),melting point,,200 to 202 °C
C[C@H](CCCO)[C@H]1CC[C@H]2[C@@H]3[C@H](OCCCN)C[C@@H]4C[C@H](OCCCN)CC[C@]4(C)[C@H]3C[C@H](OCCCN)[C@]12C [Compound 10],concentration required to inhibit bacterial growth with antibiotic,[1],0.55 µg/mL
same,MBC,"E. coli (ATCC 10798) [2]; Escherichia coli, ATCC10798, read-out: MBC",60 µg/mL
same,MIC: concentration required to lower the MIC of erythromycin from 70 μg/mL to 1 μg/mL,E. coli (ATCC 10798) [3],2 µg/mL
same,MBC (with erythromycin),E. coli (ATCC 10798) [3]; erythromycin sensitization,50 µg/mL
same,concentration required to inhibit bacterial growth with antibiotic,[4],0.70 µg/mL
same,MHC,[5],100 µg/mL
same,FIC,"[6]; Table 13, rifampicin (by order)",0.030
same,concentration required to inhibit bacterial growth with antibiotic,"[6]; Table 13, rifampicin (by order) at 0.5, 1.0 or 3.0 μg/mL",0.16 µg/mL
same,concentration required to inhibit bacterial growth with antibiotic,[7],0.73 µg/mL
same,MBC,E. coli (ATCC 25922) [8],40 µg/mL
same,MIC: concentration required to lower the MIC of erythromycin from 240 μg/mL to 5 μg/mL,"[9]; Table 7, P. aureginosa (ATCC 27853)",7 µg/mL
same,concentration required to inhibit bacterial growth with antibiotic,"[9]; Table 11, Pseudomonas aeruginosa ATCC 27853, erythromycin (by order) at 0.5, 1.0 or 3.0 μg/mL",2.1 µg/mL
same,MIC,[10],2 µg/mL
same,MBC,[11],> 17 µg/mL
same,concentration required to inhibit bacterial growth with antibiotic,E. coli (ATCC 25922) [12],1.5 µg/mL
same,concentration required to inhibit bacterial growth with antibiotic,[13],1.8 µg/mL
same,concentration required to inhibit bacterial growth with antibiotic,[14],0.84 µg/mL
same,MBC,[15],50 µg/mL
same,concentration required to inhibit bacterial growth with antibiotic,[16],5.3 µg/mL
C[C@H](CCCN(C)Cc1ccccc1)[C@H]1CC[C@H]2[C@@H]3[C@H](OC(=O)CN)C[C@@H]4C[C@H](OC(=O)CN)CC[C@]4(C)[C@H]3C[C@H](OC(=O)CN)[C@]12C.Cl.Cl.Cl.Cl [Compound 6],MIC,E. coli (ATCC 10798) [2],65 µg/mL
same,MIC: concentration required to lower the MIC of erythromycin from 70 μg/mL to 1 μg/mL,E. coli (ATCC 10798) [3],22 µg/mL
same,b: concentration of cholic acid derivatives required to lower MIC of novobiocin to 1 μg/ML,Gram-negative bacteria [17],40 µg/mL
same,MIC,Gram-negative bacteria [18],85 µg/mL
same,a: concentration of cholic acid derivatives required to lower MIC of erythromycin to 1 μg/ML,Gram-negative bacteria [19],15 µg/mL
